From PMC4721923 (PLoS ONE, 2015) come the findings set out here.

One may read the IC50 as the midpoint of a concentration-inhibition curve. What is called Km is the concentration of substrate that gives half-maximal velocity.

One series has as its target T1, OCT1 (Homo sapiens, UniProt O15245).
T1 construct: containing the full length SLC22A1 cDNA (NM_003057) encoding the human OCT1 protein; expressed in transfected cells
T1 sequence (O15245 1-554): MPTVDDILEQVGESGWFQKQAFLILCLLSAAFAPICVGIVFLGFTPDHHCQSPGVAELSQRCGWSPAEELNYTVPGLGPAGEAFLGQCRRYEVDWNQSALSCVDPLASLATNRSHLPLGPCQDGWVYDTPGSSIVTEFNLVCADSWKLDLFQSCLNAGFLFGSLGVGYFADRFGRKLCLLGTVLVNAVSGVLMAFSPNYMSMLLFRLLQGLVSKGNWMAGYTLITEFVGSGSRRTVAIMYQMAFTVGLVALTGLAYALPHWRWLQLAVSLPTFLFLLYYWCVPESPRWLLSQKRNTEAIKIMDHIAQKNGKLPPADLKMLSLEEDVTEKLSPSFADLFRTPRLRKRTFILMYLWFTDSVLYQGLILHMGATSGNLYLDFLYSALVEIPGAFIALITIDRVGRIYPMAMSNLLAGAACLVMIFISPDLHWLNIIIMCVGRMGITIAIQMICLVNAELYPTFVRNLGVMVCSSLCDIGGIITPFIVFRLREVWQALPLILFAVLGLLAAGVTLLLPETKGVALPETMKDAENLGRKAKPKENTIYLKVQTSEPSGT
Kind of series: Michaelis-Menten kinetics of ASP+ uptake, HEK-OCT1. The format is cell-based. The method, then: (§1) The previously described fluorescent substrate of organic cation transporters, 4-(4-dimethylaminostyryl)-N-methylpyridinium (ASP^+), was used to determine the function of OCT1 and OCT3 by flow cytometry in the absence and the presence of bendamustine and selected bendamustine esters. HEK293 cells expressing the transporter of interest were trypsinized and washed twice with PBS, prior to re-suspension of 0.5 · 10^6 cells in 500 μL of PBS containing 2% (v/v) FCS. The cells were incubated with ASP^+ (100 μM stock solution in PBS containing 10% DMSO) for 5 minutes, allowing for cellular accumulation, and subsequently analyzed with a FACSCalibur flow cytometer. ASP^+ was excited at 488 nm and the fluorescence was measured using a 530/30 nm and a 585/42 band-pass filter. At least 1 · 10^4 single cells were analyzed by appropriate FSC/SSC gating.
(§2) Subsequently, two volumes of an ice-cold 200 μM solution of the standard inhibitor of OCT1 and OCT3, tetrapentyl ammonium (TPA), in PBS/FCS were added to one volume of cell suspension. The mixture was immediately analyzed. The mean fluorescence intensities (MFI) were calculated using FlowJo V10, and the difference between total (HEK-OCT1 or HEK-OCT3 cells) and unspecific (HEK-Co cells) uptake was plotted as specific uptake against the concentration of ASP^+. […] Km was calculated according to the Michaelis-Menten equation using GraphPad Prism 5.01.

The next series deals with T2, OCT3 (Homo sapiens, UniProt O75751).
T2 construct: expressed in transfected cells; host or cells: HEK293 (HEK-OCT3)
T2 sequence (O75751 1-556): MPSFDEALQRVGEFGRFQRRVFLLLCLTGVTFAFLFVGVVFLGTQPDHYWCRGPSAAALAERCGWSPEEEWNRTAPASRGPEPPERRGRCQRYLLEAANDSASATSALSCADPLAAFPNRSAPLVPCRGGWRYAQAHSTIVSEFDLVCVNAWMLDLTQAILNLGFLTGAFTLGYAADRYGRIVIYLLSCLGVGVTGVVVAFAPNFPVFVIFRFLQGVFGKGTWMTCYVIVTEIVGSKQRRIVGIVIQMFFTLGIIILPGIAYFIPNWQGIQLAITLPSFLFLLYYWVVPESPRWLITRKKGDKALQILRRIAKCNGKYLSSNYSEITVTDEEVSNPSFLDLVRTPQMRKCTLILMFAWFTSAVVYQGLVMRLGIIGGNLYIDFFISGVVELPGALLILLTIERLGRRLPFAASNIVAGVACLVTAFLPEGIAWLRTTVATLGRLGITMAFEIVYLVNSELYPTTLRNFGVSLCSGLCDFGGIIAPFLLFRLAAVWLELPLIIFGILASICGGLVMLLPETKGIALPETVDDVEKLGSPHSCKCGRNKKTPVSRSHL
Description: Michaelis-Menten kinetics of ASP+ uptake, HEK-OCT3. The format is cell-based. The method, then:
as §1, §2

The test system of series [1] is HT-29 cells (colorectal adenocarcinoma). Description: Chemosensitivity assay (crystal violet assay), HT-29. The conditions noted are these: Homo sapiens, 96 hours of incubation, mean ± SEM, read-out: IC50. Format: cell-based, human. The method, then: (§3) Depending on the characteristics of the cells, two different assays were performed. For adherently growing cells (HaCaT, HT-29, NCI-H460, SK-MEL-3, MG-63, Capan-1), cytotoxic and cytocidal effects were determined in the crystal violet assay, whereas for loosely adherent cells (LNCaP, SK-ES-1) and cells growing in suspension (HEL 92.1.7, Jurkat, U-937) the MTT-assay was used with minor modifications. In brief, 1.5 · 10^3 (HaCaT, HT-29, NCI-H460, SK-MEL-3, MG-63, Capan-1) or 5 · 10^3 (Jurkat, U-937, HEL92.1.7, LNCaP, SK-ES-1) cells per well were seeded into flat-bottom 96-well plates (Sarstedt, Nümbrecht, Germany). All compounds were used as solutions prepared in DMSO and tested at final concentrations (8 replicates per concentration) of 1, 3, 10, 30 and 50 μM. In case of the vehicle control and test compounds, the final DMSO concentration amounted to 0.1%. Absorbance was measured at 580 nm in a 96-well plate reader (GENios pro microplate reader, Tecan, Salzburg, Austria). Effects were quantified as previously described for both assays.

Series [2] has as its system Jurkat cells (acute T-cell leukemia). Description: Chemosensitivity assay (MTT-assay), Jurkat. The format is cell-based, human. The conditions noted are these: Homo sapiens, 96 h, 96 hours of incubation, mean ± SEM. The method, then: as §3
(Formazan colour is commonly taken as a measure of viable cells.)

In series [3] the test system is SK-ES-1 cells (Ewing's sarcoma). Kind of series: Chemosensitivity assay (MTT-assay), SK-ES-1. The conditions noted are these: 96 hours of incubation, mean ± SEM. The format is cell-based, human. The method, then:
as §3

Series [4] concerns SK-MEL-3 cells (malignant melanoma). Description: Chemosensitivity assay (crystal violet assay), SK-MEL-3. The conditions noted are these: Homo sapiens, SK-MEL3, 96 hours of incubation, mean ± SEM, read-out: IC50. Format: cell-based, human. The method, then:
as §3

The test system of series [5] is HEL 92.1.7 cells (erythroleukemia). Kind of series: Chemosensitivity assay (MTT-assay), HEL 92.1.7. The format is cell-based, human. Conditions: Homo sapiens, HEL 92.1.7, 96 h, 96 hours of incubation, mean ± SEM. The method, then: as §3
The subject of series [6] is MG-63 cells (osteosarcoma). Kind of series: Chemosensitivity assay (crystal violet assay), MG-63. The format is cell-based, human. The conditions noted are these: Homo sapiens, MG-63, 96 h, 96 hours of incubation, crystal violet assay, mean ± SEM. The method, then: as §3
Series [7] deals with Capan-1 cells (pancreatic adenocarcinoma). Kind of series: Chemosensitivity assay (crystal violet assay), Capan-1. Format: cell-based, human. Conditions: Homo sapiens, CAPAN-1, 96 h, 96 hours of incubation, mean ± SEM. The method, then: as §3
The test system of series [8] is NCI-H460 cells (large cell lung cancer). Kind of series: Chemosensitivity assay (crystal violet assay), NCI-H460. The format is cell-based, human. Conditions: Homo sapiens, 96 hours of incubation, mean ± SEM, read-out: IC50. The method, then: as §3
Series [9] relates to U-937 cells (histiocytic lymphoma). Kind of series: Chemosensitivity assay (MTT-assay), U-937. The conditions noted are these: Homo sapiens, U-937, 96 h, 96 hours of incubation, mean ± SEM. Format: cell-based, human. The method, then: as §3
Series [10] concerns LNCaP cells (prostate cancer). Kind of series: Chemosensitivity assay (MTT-assay), LNCaP. The format is cell-based, human. The conditions noted are these: Homo sapiens, 96 hours of incubation, mean ± SEM, read-out: IC50. The method, then:
as §3

Substrate in series [11]: CN(C)c1ccc(/C=C/c2cc[n+](C)cc2)cc1
Description: Michaelis-Menten kinetics of ASP+ uptake, HEK-OCT1. Conditions: other: HEK-OCT1; substrate uptake, flow cytometry; 37.0 °C. The format is cell-based, human. The method, then: as §1, §2
(Flow cytometry measures light scatter and fluorescence of single cells or particles in a stream.)

Substrate in series [12]: CN(C)c1ccc(/C=C/c2cc[n+](C)cc2)cc1
Kind of series: Michaelis-Menten kinetics of ASP+ uptake, HEK-OCT3. The format is cell-based, human. Conditions: other: HEK-OCT3; substrate uptake, flow cytometry; 37.0 °C. The method, then: as §1, §2

In the case of `CN(C)c1ccc(C=Cc2cc[n+](C)cc2)cc1.[I-]` [ASP^+, 4-[4-(dimethylamino)styryl]-N-methylpyridinium iodide], the entries for the “vmax (maximal uptake rate)” value at OCT1 and at OCT3 were 2808 ± 78 MFI/(10^4 cells · min) and 5321 ± 89 MFI/(10^4 cells · min), respectively.
Consider `CN1CCN(CCOC(=O)CCCc2nc3cc(N(CCCl)CCCl)ccc3n2C)CC1` [Compound 7], for which the IC50 in series [1] came to 2400 ± 100 nM; in series [2], 900 ± 30 nM; in [3] (Homo sapiens, SK-ES1, 96 h), 190 ± 30 nM; in series [4], 1000 ± 270 nM; in [5], 1700 ± 100 nM; in [6], 550 ± 10 nM. Moreover, the IC50 in series [7] came out at 250 ± 20 nM; in series [8], 1200 ± 100 nM; in series [9], 1300 ± 300 nM; in [10], 930 ± 120 nM.
Consider `Cn1c(CCCC(=O)OCCN2CCCCC2)nc2cc(N(CCCl)CCCl)ccc21` [Compound 6], for which the IC50 in [1] amounted to 1700 ± 100 nM; in series [2], 830 ± 10 nM; in series [3] (Homo sapiens, SK-ES1, 96 h), 190 ± 10 nM; in series [4] it was 1240 ± 100 nM; in [5], 1300 ± 100 nM; in series [6], 530 ± 10 nM. In addition, the 50% inhibitory concentration (IC50) was 170 ± 10 nM in [7], 1200 ± 100 nM in [8], 1100 ± 200 nM in series [9] and 750 ± 30 nM in [10].
Regarding `CCOC(=O)CCCc1nc2cc(N(CCCl)CCCl)ccc2n1C` [Compound 3], the IC50 in series [1] is 10000 ± 100 nM; in [2], 3800 ± 40 nM; in series [3] it was 180 ± 10 nM; in [3] (Homo sapiens, SK-ES1, 96 h) it was ~200 nM; in series [4], 21700 ± 4100 nM; in series [5], 2900 ± 200 nM. Moreover, the IC50 in [6] came to 2100 ± 60 nM; in series [7], 1000 ± 10 nM; in [8], 4800 ± 100 nM; in series [9] it was 1900 ± 10 nM; in [10], 1500 ± 100 nM.

B1: human OCT1 (Homo sapiens) (protein)
chain: T1 sequence (O15245 1-554)
notes: containing the full length SLC22A1 cDNA (NM_003057) encoding the human OCT1 protein; expressed in transfected cells
Take B1: the Km in series [11] came to 3.1 ± 0.1 µM.

B2: OCT3 (Homo sapiens) (protein)
chain: T2 sequence (O75751 1-556)
notes: expressed in transfected cells; host or cells: HEK293 (HEK-OCT3)
Take B2: the Km in series [12] was 2.7 ± 0.1 µM.
